SMILES strings stand for the structures.

The source of these data is PMC7083565, “In vitro metabolism, reaction phenotyping, enzyme kinetics, CYP inhibition and induction potential of ataluren” (Pharmacology Research & Perspectives, 2020).

The subject of this data set is CYP2C9. In words: CYP induction in primary human hepatocytes: CYP2C9. The conditions noted are these: male, 48 h. In kind it is in vitro ADME. As to the method:
Human hepatocytes isolated from three Caucasian males were transferred to 48‐well collagen‐coated plates at 0.14 × 10^6 cells/well in planting media for attachment. After attachment, planting media was replaced with sandwich media and the cells were incubated until clusters were established. […] The incubation solutions were aspirated and replaced with freshly prepared incubation solutions containing ataluren for an additional 24 hours. […] The incubation solutions were then aspirated and 150 µL of K‐H buffer containing CYP substrates were added. The hepatocytes were incubated for 30 minutes for CYP2C8 (10 µmol/L amodiaquine), 1 hour for CYP3A4 (125 µmol/L testosterone), and 4 hours for CYPs 1A2 (100 µmol/L phenacetin), 2A6 (100 µmol/L coumarin), 2B6 (150 µmol/L bupropion), 2C9 (50 µmol/L tolbutamide), 2C19 (100 µmol/L S‐mephenytoin), and 2E1 (300 µmol/L chlorzoxazone) activity assays. The reactions were stopped by the addition of 0.15 mL of ice‐cold methanol except that coumarin‐treated cells were incubated with β‐glucuronidase and aryl sulfatase for additional 1 hour to free 7‐hydroxycoumarin before the addition of 0.2 mL of ice‐cold methanol. Metabolite formation in incubations with test compounds and control inhibitors was assessed with validated LC‐MS/MS methods for each of the reaction products as described in Table S2. Enzymatic activity for each CYP was calculated using the absolute amount of metabolite formed (pmol) divided by hepatocytes in the incubation (million cells) and the incubation time (minute). The relative fold induction in enzymatic activity was calculated by comparing the rate of metabolite formation for treatment groups to that of the solvent control group (reported as vehicle control%) or positive control group (reported as positive control%).

`O=C(O)c1cccc(-c2noc(-c3ccccc3F)n2)c1` [ataluren, Ataluren]: the “Vehicle control %, Mean” value runs as follows: (4 µM) 100%; (400 µM) 146%. The “induction over vehicle control, CYP2C9 activity” value (hepatocytes, 400 µmol/L) was around 1.5 fold.
